Source: US9758520B2, “Substituted fused heterocycles as GPR119 modulators for the treatment of diabetes, obesity, dyslipidemia and related disorders” (SANOFI, priority 2014, dated 2017)
pEC50: −log10 of the molar value.

These compounds were tested against T1, human GPR119 (Homo sapiens, UniProt Q8TDV5) (assay: Functional cellular assay measuring GPR119-mediated cAMP release (HTRF) in HEK-293 cells stably expressing recombinant GPR119). Settings: cAMP response, cell line expressing human GPR119 (HEK-293), 30 minutes at room temperature.
T1 construct: expressed in transfected cells
T1 sequence (Q8TDV5 1-335): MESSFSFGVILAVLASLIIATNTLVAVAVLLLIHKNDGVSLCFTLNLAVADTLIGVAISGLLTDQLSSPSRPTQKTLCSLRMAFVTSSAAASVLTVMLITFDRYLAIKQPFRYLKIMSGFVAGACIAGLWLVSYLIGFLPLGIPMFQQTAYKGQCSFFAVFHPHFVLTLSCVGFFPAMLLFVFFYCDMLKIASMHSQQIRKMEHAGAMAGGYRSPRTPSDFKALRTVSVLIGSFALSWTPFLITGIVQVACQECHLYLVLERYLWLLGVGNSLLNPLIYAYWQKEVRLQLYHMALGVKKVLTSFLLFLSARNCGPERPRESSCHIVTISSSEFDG
Assay type: cell-based
Method: Functional Cellular Assays Measuring GPR119-Mediated cAMP Release
Compounds of the invention, which are agonists of GPR119, were characterized by functional assays measuring the cAMP response of HEK-293 cell lines stably expressing recombinant GPR119 from man, mouse or rat, or by using a hamster cell line HIT-T15 expressing GPR119 endogenously. The cAMP content was determined using a kit based on homogenous time-resolved fluorescence (HTRF) from Cisbio Corp. (cat. no. 62AM4PEC). For preparation, cells were split into T175 culture flasks and grown to near confluency in medium (DMEM/10% FCS for HEK-293 cells, and F-12K medium/10% horse serum/2.5% FCS for HIT-T15 cells, respectively). Medium was then removed and cells washed with PBS lacking calcium and magnesium ions, followed by proteinase treatment with accutase (Sigma-Aldrich, cat. no. A6964). Detached cells were washed and resuspended in assay buffer (1×HBSS; 20 mM HEPES, 0.1% BSA, 2 mM IBMX) and cellular density determined. They were then diluted to 400000 cells/mL and 25 μL-aliquots dispensed to the wells of 96-well plates. For measurement, 25 μL of test compound in assay buffer was added and incubated for 30 minutes at room temperature. After addition of HTRF reagents diluted in lysis buffer, the plates were incubated for 1 hour, followed by measuring the fluorescence ratio at 665 vs. 620 nm. Potency of the agonists was quantified by determining the concentrations that caused 50% of the maximal response/activation (EC50). See Table 3 for exemplary data obtained using the cell line expressing human GPR119.

Going from O=C(O)Cc1cn2cc(N3CC[C@@H](Oc4ccc(OCC5CC5)nc4)C3=O)ccc2n1 [Example 1-19, 2-[6-[(3R)-3-[[6-(cyclopropylmethoxy)-3-pyridyl]oxy]-2-oxo-pyrrolidin-1-yl]imidazo[1,2-a]pyridin-2-yl]acetic acid] to COC(=O)Cc1cn2cc(N3CC[C@@H](Oc4ccc(OCC5CC5)nc4)C3=O)ccc2n1 [Example 1-20, methyl 2-[6-[(3R)-3-[[6-(cyclopropylmethoxy)-3-pyridyl]oxy]-2-oxo-pyrrolidin-1-yl]imidazo[1,2-a]pyridin-2-yl]acetate], the pEC50 rises from under 4.00 to 5.00. The second is the more potent here.

Compared with CS(=O)(=O)Cn1nc2ccc(N3CC[C@@H](Oc4ccc(OCC(F)(F)F)nc4)C3=O)cn2c1=O [Example 1-33, 2-(methylsulfonylmethyl)-6-[(3R)-2-oxo-3-[[6-(2,2,2-trifluoroethoxy)-3-pyridyl]oxy]pyrrolidin-1-yl]-[1,2,4]triazolo[4,3-a]pyridin-3-one], O=C(O)Cn1nc2ccc(N3CC[C@@H](Oc4ccc(OCC5CC5)nc4)C3=O)cn2c1=O [Example 1-24, 2-[6-[(3R)-3-[[6-(cyclopropylmethoxy)-3-pyridyl]oxy]-2-oxo-pyrrolidin-1-yl]-3-oxo-[1,2,4]triazolo[4,3-a]pyridin-2-yl]acetic acid] is 1.74 log units lower in pEC50: 6.95 for the first, 5.21 for the second.

Compared with CN(C)C(=O)Cn1nc2c(F)cc(N3CC[C@@H](Oc4ccc(C(=O)CC5CC5)cc4)C3=O)cn2c1=O [Example 1-13, 2-[6-[(3R)-3-[4-(2-cyclopropylacetyl)phenoxy]-2-oxo-pyrrolidin-1-yl]-8-fluoro-3-oxo-[1,2,4]triazolo[4,3-a]pyridin-2-yl]-N,N-dimethyl-acetamide], COC(=O)Cn1nc2c(F)cc(N3CC[C@@H](Oc4ccc(OCC5CC5)nc4)C3=O)cn2c1=O [Example 1-28, methyl 2-[6-[(3R)-3-[[6-(cyclopropylmethoxy)-3-pyridyl]oxy]-2-oxo-pyrrolidin-1-yl]-8-fluoro-3-oxo-[1,2,4]triazolo[4,3-a]pyridin-2-yl]acetate] is 0.40 log units higher in pEC50: 6.75 for the first, 7.15 for the second. The second is the more potent here.

Going from O=C(Cn1nc2ccc(N3CC[C@@H](Oc4ccc(OCC5CC5)nc4)C3=O)cc2n1)NCCO [Example 2-04, 2-[5-[(3R)-3-[[6-(cyclopropylmethoxy)-3-pyridyl]oxy]-2-oxo-pyrrolidin-1-yl]benzotriazol-2-yl]-N-(2-hydroxyethyl)acetamide] to O=C(O)Cn1nc2ccc(N3CC[C@@H](Oc4ccc(OCC5CC5)nc4)C3=O)cc2n1 [Example 1-17, 2-[5-[(3R)-3-[[6-(cyclopropylmethoxy)-3-pyridyl]oxy]-2-oxo-pyrrolidin-1-yl]benzotriazol-2-yl]acetic acid], the pEC50 falls from 6.46 to 5.68 (0.78 log units). The first is the more potent here.

CN(C)C(=O)Cn1nc2cc(N3CC[C@@H](Oc4ccc(OCC5CC5)nc4)C3=O)cc(F)c2n1 [Example 1-22, 2-[6-[(3R)-3-[[6-(cyclopropylmethoxy)-3-pyridyl]oxy]-2-oxo-pyrrolidin-1-yl]-4-fluorobenzotriazol-2-yl]-N,N-dimethyl-acetamide] and CN(C)C(=O)Cn1nc2ccc(N3CC[C@@H](Oc4ccc(OCC5CC5)nc4)C3=O)cc2n1 [Example 2-03, 2-[5-[(3R)-3-[[6-(cyclopropylmethoxy)-3-pyridyl]oxy]-2-oxo-pyrrolidin-1-yl]benzotriazol-2-yl]-N,N-dimethyl-acetamide] are within 0.2 log units of each other in pEC50: 6.74 for the first, 6.90 for the second.

O=C1[C@H](Oc2ccc(OCC3CC3)nc2)CCN1c1ccc2nccn2c1 [Example 1-03, (3R)-3-[[6-(cyclopropylmethoxy)-3-pyridyl]oxy]-1-imidazo[1,2-a]pyridin-6-yl-pyrrolidin-2-one] and O=C1[C@H](Oc2ccc(OCC3CC3)nc2)CCN1c1ccc2nncn2c1 [Example 1-05, (3R)-3-[[6-(cyclopropylmethoxy)-3-pyridyl]oxy]-1-([1,2,4]triazolo[4,3-a]pyridin-6-yl)pyrrolidin-2-one] are within 0.2 log units of each other in pEC50: 5.12 for the first, 5.10 for the second.

Going from CN(C)C(=O)Cn1cc2cc(N3CC[C@@H](Oc4ccc(OCC(F)(F)F)nc4)C3=O)ccc2n1 [Example 1-34, N,N-dimethyl-2-[5-[(3R)-2-oxo-3-[[6-(2,2,2-trifluoroethoxy)-3-pyridyl]oxy]pyrrolidin-1-yl]indazol-2-yl]acetamide] to O=C(O)Cn1cc2ccc(N3CC[C@@H](Oc4ccc(OCC5CC5)nc4)C3=O)cc2n1 [Example 1-16, 2-[6-[(3R)-3-[[6-(cyclopropylmethoxy)-3-pyridyl]oxy]-2-oxo-pyrrolidin-1-yl]indazol-2-yl]acetic acid], the pEC50 falls from 6.99 to 4.92 (2.07 log units). The first is the more potent here.

First: COC(=O)Cc1nc2ccc(N3CC[C@@H](Oc4ccc(OCC5CC5)nc4)C3=O)cn2n1 [Example 1-07, methyl 2-[6-[(3R)-3-[[6-(cyclopropylmethoxy)-3-pyridyl]oxy]-2-oxo-pyrrolidin-1-yl]-[1,2,4]triazolo[1,5-a]pyridin-2-yl]acetate]
Second: O=C(O)Cc1nc2ccc(N3CC[C@@H](Oc4ccc(OCC5CC5)nc4)C3=O)cn2n1 [Example 1-06, 2-[6-[(3R)-3-[[6-(cyclopropylmethoxy)-3-pyridyl]oxy]-2-oxo-pyrrolidin-1-yl]-[1,2,4]triazolo[1,5-a]pyridin-2-yl]acetic acid]
The pEC50 of the first is 1.04 log units higher: 5.80 for the first, 4.76 for the second.

Going from COC(=O)c1nc2ccc(N3CC[C@@H](Oc4ccc(OCC5CC5)nc4)C3=O)cn2n1 [Example 1-08, methyl 6-[(3R)-3-[[6-(cyclopropylmethoxy)-3-pyridyl]oxy]-2-oxo-pyrrolidin-1-yl]-[1,2,4]triazolo[1,5-a]pyridine-2-carboxylate] to O=C1[C@H](Oc2ccc(OCC3CC3)nc2)CCN1c1ccc2nc(C3CC3)nn2c1 [Example 1-01, (3R)-3-[[6-(Cyclopropylmethoxy)-3-pyridyl]oxy]-1-(2-cyclopropyl-[1,2,4]triazolo[1,5-a]pyridin-6-yl)pyrrolidin-2-one], the pEC50 falls from 5.26 to 4.95 (0.31 log units).

Compared with O=C1[C@H](Oc2ccc(OCC3CC3)nc2)CCN1c1ccc2ncnn2c1 [Example 1-02, (3R)-3-[[6-(cyclopropylmethoxy)-3-pyridyl]oxy]-1-([1,2,4]triazolo[1,5-a]pyridin-6-yl)pyrrolidin-2-one], Cn1nc2ccc(N3CC[C@@H](Oc4ccc(OCC5CC5)nc4)C3=O)cn2c1=O [Example 1-23, 6-[(3R)-3-[[6-(cyclopropylmethoxy)-3-pyridyl]oxy]-2-oxo-pyrrolidin-1-yl]-2-methyl-[1,2,4]triazolo[4,3-a]pyridin-3-one] is 0.69 log units lower in pEC50: 6.07 for the first, 5.38 for the second.

Compared with COC(=O)Cn1nc2ccc(N3CC[C@@H](Oc4ccc(OCC5CC5)nc4)C3=O)cc2n1 [Example 1-18, methyl 2-[5-[(3R)-3-[[6-(cyclopropylmethoxy)-3-pyridyl]oxy]-2-oxo-pyrrolidin-1-yl]benzotriazol-2-yl]acetate], COC(=O)Cn1cc2ccc(N3CC[C@@H](Oc4ccc(OCC5CC5)nc4)C3=O)cc2n1 [Example 1-15, methyl 2-[6-[(3R)-3-[[6-(cyclopropylmethoxy)-3-pyridyl]oxy]-2-oxo-pyrrolidin-1-yl]indazol-2-yl]acetate] is 1.44 log units lower in pEC50: 7.47 for the first, 6.03 for the second. The first is the more potent here.

First: O=C1[C@H](Oc2ccc(OCC3CC3)nc2)CCN1c1cc(F)c2n[nH]c(=O)n2c1 [Example 1-25, 6-[(3R)-3-[[6-(cyclopropylmethoxy)-3-pyridyl]oxy]-2-oxo-pyrrolidin-1-yl]-8-fluoro-2H-[1,2,4]triazolo[4,3-a]pyridin-3-one]
Second: O=C(Cn1nc2c(F)cc(N3CC[C@@H](Oc4ccc(OCC5CC5)nc4)C3=O)cn2c1=O)NC1CC1 [Example 2-02, N-cyclopropyl-2-[6-[(3R)-3-[[6-(cyclopropylmethoxy)-3-pyridyl]oxy]-2-oxo-pyrrolidin-1-yl]-8-fluoro-3-oxo-[1,2,4]triazolo[4,3-a]pyridin-2-yl]acetamide]
The pEC50 of the first is 0.31 log units lower: 6.60 for the first, 6.91 for the second. The second is the more potent here.

CN(C)C(=O)Cn1nc2ccc(N3CC[C@@H](Oc4ccc(Oc5ccc(F)cc5)nc4)C3=O)cn2c1=O [Example 1-11, 2-[6-[(3R)-3-[[6-(4-fluorophenoxy)-3-pyridyl]oxy]-2-oxo-pyrrolidin-1-yl]-3-oxo-[1,2,4]triazolo[4,3-a]pyridin-2-yl]-N,N-dimethyl-acetamide] and CS(=O)(=O)Cn1nc2ccc(N3CC[C@@H](Oc4ccc(C(=O)C5CC5)cc4)C3=O)cn2c1=O [Example 1-32, 6-[(3R)-3-[4-(cyclopropanecarbonyl)phenoxy]-2-oxo-pyrrolidin-1-yl]-2-(methylsulfonylmethyl)-[1,2,4]triazolo[4,3-a]pyridin-3-one] are within 0.2 log units of each other in pEC50: 6.69 for the first, 6.71 for the second.

COC(=O)Cn1c(C)c2ccc(N3CC[C@@H](Oc4ccc(OCC5CC5)nc4)C3=O)cn2c1=O [Example 1-04, methyl 2-[6-[(3R)-3-[[6-(cyclopropylmethoxy)-3-pyridyl]oxy]-2-oxo-pyrrolidin-1-yl]-1-methyl-3-oxo-imidazo[1,5-a]pyridin-2-yl]acetate] gave a pEC50 of 6.81.
